Results on 1 molecule are retold here after paper PMC11655547, “Dual functions of silibinin in attenuating aortic dissection via regulating iron homeostasis and endoplasmic reticulum stress against ferroptosis” (Cell Death & Disease, 2024).

The target of the experiment is T1, HMOX1 (heme oxygenase 1) (Homo sapiens, UniProt P09601).
T1 sequence (P09601 1-288): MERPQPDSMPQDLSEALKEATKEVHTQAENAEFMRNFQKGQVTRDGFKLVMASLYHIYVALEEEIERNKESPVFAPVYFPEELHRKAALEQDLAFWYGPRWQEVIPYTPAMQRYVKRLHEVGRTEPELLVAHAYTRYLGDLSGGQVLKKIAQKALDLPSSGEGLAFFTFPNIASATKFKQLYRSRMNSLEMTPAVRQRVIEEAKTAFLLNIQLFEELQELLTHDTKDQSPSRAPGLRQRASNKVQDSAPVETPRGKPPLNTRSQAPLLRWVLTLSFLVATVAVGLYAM
The experiment in a line: SPR ([…] SIL); supported by CETSA and DARTS. The class given is binding.

As for `COc1cc(C2Oc3cc([C@H]4Oc5cc(O)cc(O)c5C(=O)[C@@H]4O)ccc3OC2CO)ccc1O` (stereo partly shown) [SIL, Silibinin], the Kd (usually the equilibrium constant for the complex coming apart) turned out to be 46 µM.
